Test system: Lewis Lung Carcinoma cells
Test: Lewis Lung Carcinoma efficacy study
Assay type: in vivo
Settings: single agent, dosed orally twice daily at 50, 100 or 200 mg/kg; female C57.Bl/6 mice implanted subcutaneously with Lewis Lung Carcinoma cells; relative to control
Method: Female C57.Bl/6 mice (n=40) were implanted subcutaneously with 1×10^6 Lewis Lung Carcinoma cells suspended in PBS. The day following implantation, mice were randomized into 4 groups of n=10 mice to receive the following treatments dosed orally twice daily until study end: 1) Vehicle (water); 2) Compound 10 at 50 mg/kg formulated in water; 3) Compound 10 at 100 mg/kg formulated in water; or 4) Compound 10 at 200 mg/kg formulated in water. Tumors were measured three times per week with digital calipers and tumor volumes calculated with the following formula: tumor volume (mm^3)=(a×b^2/2) where ‘b’ is the smallest diameter and ‘a’ is the largest perpendicular diameter. ***P-value<0.001, ****P-value<0.0001 (Two-sided T-test).

C[C@H](N)C(=O)N1C[C@H](CCCB(O)O)[C@](N)(C(=O)O)C1 [Compound 10, (3R,4S)-3-amino-1-((S)-2-aminopropanoyl)-4-(3-boronopropyl)pyrrolidine-3-carboxylic acid]
tumor volume over time (tumor growth): slows tumor growth relative to control

— patent publication US10844080B2, “Compositions and methods for inhibiting arginase activity” (CALITHERA BIOSCIENCES, INC., priority 2015, dated 2020)
